# Patent publication US10010610B2, “Compositions and methods for the treatment of intraocular neovascularization and/or leakage” (Retinal Therapies LLC, priority 2014, dated 2018)
# Assays:
# [1] = octanol-water partition coefficient at pH 7.0; cited from earlier work
# [2] = in vivo; details: rabbit, topical, 0.25 % w/v
# [3] = Slit lamp and fundus exams after topical ocular dosing in rabbits; details: Example 1 formulation, topical twice-a-day to both eyes, treated eyes
smiles,measurement,setting,value
COc1cc2nccc(Oc3ccc(NC(=O)C4(C(=O)Nc5ccc(F)cc5)CC4)cc3)c2cc1OC [cabozantinib],Log P,[1],3.0
same,concentration at 5 day,"[2]; pigmented, plasma",< 12.5 ng/mL
same,concentration at 5 day,[2]; posterior vitreous,0.99 nM
same,slit lamp and fundus exams,[3],completely normal except for slight conjuctival follicle formation
